Experimental data as given in patent US5654427A, “Indolocarbazole derivatives to treat a pathological condition of the prostate” (Kyowa Hakko Kogyo Co., Ltd., priority 1995, dated 1997).

Target: T1, trkA (Rattus norvegicus, UniProt P35739)
T1 construct: are rat pheochromocytoma cells that bear trkA; host or cells: PC12 rat pheochromocytoma cells
Test: inhibition of NGF-stimulated trk autophosphorylation (tyrosine phosphorylation) in PC12 cells, anti-phosphotyrosine Western blot; as to trk 100 nM (inhibition of phosphorylation): key: +: Inhibited phosphorylation; -: Did not inhibit phosphorylation; as to trk 500 nM (inhibition of phosphorylation): key: +: Inhibited phosphorylation; -: Did not inhibit phosphorylation
Assay type: cell-based
Settings: for trk 100 nM (inhibition of phosphorylation) / phosphorylation response (FIG. 1, spot): 100 nM compound; for trk 100 nM (inhibition of phosphorylation) / trk 500 nM (inhibition of phosphorylation): NGF 50 ng/ml; for trk 500 nM (inhibition of phosphorylation): 500 nM compound; for phosphorylation response (FIG. 1, spot): NGF, Western blot FIG. 1
Method: Candidate compounds for the inhibition of prostate cell proliferation were selected according to their ability to inhibit the tyrosine kinase activity associated with the trks.
PC12 cells (ATCC #CRL1721) are rat pheochromocytoma cells that bear trkA and differentiate into sympathetic neurons when treated with NGF. […] Cells were incubated at 37° C. in a humidified atmosphere of 10% CO2 and 90% air. […] The cells in each culture were disrupted and cell lysates were prepared by standard techniques known to those skilled in the art. Each lysate was incubated with anti-trk antibody whereby immune complexes were formed. […] The immune complexes were collected on Protein A-Sepharose beads, separated by SDS-polyacrylamide gel electrophoresis (SDS-PAGE), and transferred to polyvinylidene difluoride (PVDF) membranes (Millipore Corp., Bedford, Mass.), using techniques well known to those skilled in the art. The membranes were incubated with anti-phosphotyrosine antibody, which binds to the tyrosine phosphorylated trks, but not to the un-phosphorylated form of trks. Proteins bound to anti-phosphotyrosine antibody were visualized with enhanced chemiluminescence (ECL, Amersham), and are shown as dark "spots" in FIG. 1.
Measurement of the autophosphorylation of trk provides a good index of trk tyrosine kinase activity, and thereby of trk stimulation.
Inhibition was indicated by the absence of a spot migrating with the trk marker shown at the left side of the figure. Partial inhibition was indicated by a spot of reduced size.

T1 sequence (P35739 33-799): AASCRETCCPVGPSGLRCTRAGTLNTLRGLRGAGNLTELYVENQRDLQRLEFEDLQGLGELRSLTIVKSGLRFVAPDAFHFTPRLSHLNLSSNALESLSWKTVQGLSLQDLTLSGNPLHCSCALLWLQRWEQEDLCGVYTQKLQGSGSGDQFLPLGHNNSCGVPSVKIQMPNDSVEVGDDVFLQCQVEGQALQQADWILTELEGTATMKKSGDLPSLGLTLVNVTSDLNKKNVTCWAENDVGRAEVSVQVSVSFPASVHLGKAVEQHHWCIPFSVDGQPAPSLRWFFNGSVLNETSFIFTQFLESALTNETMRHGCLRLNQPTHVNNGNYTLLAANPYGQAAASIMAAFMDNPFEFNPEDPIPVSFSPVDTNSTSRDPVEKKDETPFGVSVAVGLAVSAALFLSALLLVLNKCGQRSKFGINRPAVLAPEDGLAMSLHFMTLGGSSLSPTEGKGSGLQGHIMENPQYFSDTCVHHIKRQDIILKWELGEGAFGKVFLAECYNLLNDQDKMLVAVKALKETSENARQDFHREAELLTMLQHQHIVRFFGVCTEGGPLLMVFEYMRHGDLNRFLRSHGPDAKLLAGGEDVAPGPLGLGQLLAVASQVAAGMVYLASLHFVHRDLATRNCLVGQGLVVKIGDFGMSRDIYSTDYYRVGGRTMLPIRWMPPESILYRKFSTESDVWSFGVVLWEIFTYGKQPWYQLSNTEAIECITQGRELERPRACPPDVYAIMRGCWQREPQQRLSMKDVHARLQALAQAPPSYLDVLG

| Structure (SMILES) | trk 100 nM (inhibition of phosphorylation) | trk 500 nM (inhibition of phosphorylation) | phosphorylation response (FIG. 1, spot) |
| --- | --- | --- | --- |
| CC12OC(CC1(O)C=NO)n1c3ccccc3c3c4c(c5c6ccccc6n2c5c31)CNC4=O (stereo not drawn) [Compound I-28] | + |  |  |
| CSCC1(O)CC2OC1(C)n1c3ccccc3c3c4c(c5c6ccccc6n2c5c31)C(=O)NC4 (stereo not drawn) [Compound I-56] |  | + |  |
| CC1(C)OCC2(CC3OC2(C)n2c4ccccc4c4c5c(c6c7ccccc7n3c6c42)C(=O)NC5)O1 (stereo not drawn) [Compound I-13] | + | + |  |
| COC(=O)Nc1ccc2c(c1)c1c3c(c4c5ccccc5n5c4c1n2C1CC(O)(C(=O)OC)C5(C)O1)CNC3=O (stereo not drawn) [Compound I-37] | + |  |  |
| COC(=O)C1(O)CC2OC1(C)n1c3ccccc3c3c4c(c5c6cc(CSc7ncccn7)ccc6n2c5c31)C(=O)NC4 (stereo not drawn) [Compound I-62] | + | + |  |
| COC(=O)C1(O)CC2OC1(C)n1c3ccccc3c3c4c(c5c6cc(Br)ccc6n2c5c31)C(=O)NC4 (stereo not drawn) [Compound I-23] | - | + |  |
| CC12OC(CC1(O)C(=O)NO)n1c3ccccc3c3c4c(c5c6ccccc6n2c5c31)CNC4=O (stereo not drawn) [Compound I-26] | + |  |  |
| COC(=O)C1(O)CC2OC1(C)n1c3ccccc3c3c4c(c5c6cc(CSc7nc[nH]n7)ccc6n2c5c31)C(=O)NC4 (stereo not drawn) [Compound I-72] | - | + |  |
| COC(=O)C1(O)CC2OC1(C)n1c3ccccc3c3c4c(c5c6cc(C=NNc7ccccn7)ccc6n2c5c31)C(=O)NC4 (stereo not drawn) [Compound I-70] | + | + |  |
| COC(=O)C1(O)CC2OC1(C)n1c3ccccc3c3c4c(c5c6cc(C=NN7CCOCC7)ccc6n2c5c31)C(=O)NC4 (stereo not drawn) [Compound I-74] | + | + |  |
| CC12OC(CC1(O)C(=O)NCCO)n1c3ccc(Br)cc3c3c4c(c5c6cc(Br)ccc6n2c5c31)CNC4=O (stereo not drawn) [Compound I-43] | - | + |  |
| COC(=O)C1(O)CC2OC1(C)n1c3ccc(Cl)cc3c3c4c(c5c6cc(Cl)ccc6n2c5c31)C(=O)NC4 (stereo not drawn) [Compound I-44] | - | + |  |
| COC(=O)C1(O)CC2OC1(C)n1c3ccccc3c3c4c(c5c6cc(CSCCN(C)C)ccc6n2c5c31)C(=O)NC4 (stereo not drawn) [Compound I-71] | - | + |  |
| COC(=O)C1(O)CC2OC1(C)n1c3ccccc3c3c4c(c5c6cc(C[S+]([O-])c7ncccn7)ccc6n2c5c31)C(=O)NC4 (stereo not drawn) [Compound I-63] | - | + |  |
| COC(=O)C1(O)CC2OC1(C)n1c3ccccc3c3c4c(c5c6cc(C(Sc7ccccc7)Sc7ccccc7)ccc6n2c5c31)C(=O)NC4 (stereo not drawn) [Compound I-58] | - | + |  |
| CC12OC(CC1(O)CO)n1c3ccc(Br)cc3c3c4c(c5c6ccccc6n2c5c31)CNC4=O (stereo not drawn) [Compound I-36] | + |  |  |
| COC(=O)C1(O)CC2OC1(C)n1c3ccc(Br)cc3c3c4c(c5c6cc(Br)ccc6n2c5c31)C(=O)NC4 (stereo not drawn) [Compound I-39] | + |  | somewhat diminished (a smaller spot was seen) |
| CC12OC(CC1(O)C=NNC(N)=O)n1c3ccccc3c3c4c(c5c6ccccc6n2c5c31)CNC4=O (stereo not drawn) [Compound I-14] | + |  |  |
| CC12OC(CC1O)n1c3ccccc3c3c4c(c5c6ccccc6n2c5c31)CNC4=O (stereo not drawn) [Compound I-3] | + |  |  |
| COC(=O)C1(O)CC2OC1(C)n1c3ccccc3c3c4c(c5c6cc(CSCc7ccco7)ccc6n2c5c31)C(=O)NC4 (stereo not drawn) [Compound I-68] | - | + |  |
| CC[S+]([O-])Cc1ccc2c(c1)c1c3c(c4c5cc(C[S+]([O-])CC)ccc5n5c4c1n2C1CC(O)(C(=O)OC)C5(C)O1)CNC3=O (stereo not drawn) [Compound I-66] | - | + |  |

| Structure (SMILES) | trk 100 nM (inhibition of phosphorylation) | trk 500 nM (inhibition of phosphorylation) | phosphorylation response (FIG. 1, spot) |
| --- | --- | --- | --- |
| CCSCc1ccc2c(c1)c1c3c(c4c5cc(CO)ccc5n5c4c1n2C1CC(O)(C(=O)OC)C5(C)O1)CNC3=O (stereo not drawn) [Compound I-65] | - | + |  |
| CCNC(=O)Nc1ccc2c(c1)c1c3c(c4c5ccccc5n5c4c1n2C1CC(O)(C(=O)OC)C5(C)O1)CNC3=O (stereo not drawn) [Compound I-34] | - | + |  |
| O=C1NCc2c1c1c3ccccc3n(CCCO)c1c1c2c2ccccc2n1CCCO [II-4] |  | + |  |
| CC12OC(CC1(O)C(=O)N1CCOCC1)n1c3ccccc3c3c4c(c5c6ccccc6n2c5c31)CNC4=O (stereo not drawn) [Compound I-11] | + |  |  |
| CC12OC(CC1(O)CNC(=O)[C@@H]1CCCN1)n1c3ccccc3c3c4c(c5c6ccccc6n2c5c31)CNC4=O (stereo partly drawn) [Compound I-17] | - | + |  |
| COC(=O)C1(O)CC2OC1(C)n1c3ccccc3c3c4c(c5c6cc(NC(=O)Nc7ccccc7)ccc6n2c5c31)C(=O)NC4 (stereo not drawn) [Compound I-27] | - | + |  |
| COC(=O)C1(O)CC2OC1(C)n1c3ccccc3c3c4c(c5c6cc(C=NN7CCCC7)ccc6n2c5c31)C(=O)NC4 (stereo not drawn) [Compound I-69] | + | + |  |
| COC(=O)C1(O)CC2OC1(C)n1c3ccccc3c3c4c(c5c6cc(CSc7nc8ccccc8[nH]7)ccc6n2c5c31)C(=O)NC4 (stereo not drawn) [Compound I-67] | + | + |  |
| CC(=O)NCC1(O)CC2OC1(C)n1c3ccccc3c3c4c(c5c6ccccc6n2c5c31)C(=O)NC4 (stereo not drawn) [Compound I-24] | + |  |  |
| CC12OC(CC1(O)C=NNC(=N)N)n1c3ccccc3c3c4c(c5c6ccccc6n2c5c31)CNC4=O (stereo not drawn) [Compound I-29] | - | + |  |
| COC(=O)C1(O)CC2OC1(C)n1c3ccccc3c3c4c(c5c6cc(C[S+]([O-])c7ccccn7)ccc6n2c5c31)C(=O)NC4 (stereo not drawn) [Compound I-64] | - | + |  |
| COC(=O)C1(O)CC2OC1(C)n1c3ccccc3c3c4c(c5c6cc(C=NN7CCN(C)CC7)ccc6n2c5c31)C(=O)NC4 (stereo not drawn) [Compound I-76] |  | + |  |
| CCNC(=O)C1(O)CC2OC1(C)n1c3ccccc3c3c4c(c5c6ccccc6n2c5c31)C(=O)NC4 (stereo not drawn) [Compound I-9] | + |  | absent (no spot seen) |
| C=CCn1c2ccccc2c2c3c(c4c5ccccc5n(CC=C)c4c21)C(=O)NC3 [II-1] | - | + |  |
| CCNC(=O)OCc1ccc2c(c1)c1c3c(c4c5ccccc5n5c4c1n2C1CC(O)(C(=O)OC)C5(C)O1)CNC3=O (stereo not drawn) [Compound I-35] | + | + |  |
| COC(=O)C1(OC)CC2OC1(C)n1c3ccccc3c3c4c(c5c6ccccc6n2c5c31)C(=O)NC4 (stereo not drawn) [Compound I-53] | + |  |  |
| COC(=O)CC1(O)CC2OC1(C)n1c3ccccc3c3c4c(c5c6ccccc6n2c5c31)C(=O)NC4 (stereo not drawn) [Compound I-31] | + |  |  |
| CC12OC(CC1(O)CNC(=O)[C@@H](N)CCCCN)n1c3ccccc3c3c4c(c5c6ccccc6n2c5c31)CNC4=O (stereo partly drawn) [Compound I-57] | + |  |  |
| COC(=O)C1(O)CC2OC1(C)n1c3ccccc3c3c4c(c5c6cc(C7SCCS7)ccc6n2c5c31)C(=O)NC4 (stereo not drawn) [Compound I-59] | - | + |  |
| CC12OC(CC1(O)C(N)=O)n1c3ccccc3c3c4c(c5c6ccccc6n2c5c31)CNC4=O (stereo not drawn) [Compound I-4] | + | + |  |
| CC12OC(CC1(O)CNC(=O)CN)n1c3ccccc3c3c4c(c5c6ccccc6n2c5c31)CNC4=O (stereo not drawn) [Compound I-32] | + |  |  |
